“And” between values parts separate entries of the source, which are not always exact repeats. Equal entries are not always repeated.
Legend:
Format in all cases: cell-based, human
[1] = test system: PBMC from allergic donors; assay: Dual ELISPOT, total IL-5 and IFN-γ response (SFC); conditions: sum of IFNg and IL-5
Description: (§1) Spots were counted by computer-assisted image analysis (Zeiss, KS-ELISPOT reader, Munich, Germany).
(§2) Each assay was performed in triplicate. The level of statistical significance was determined with a Student's t-test using the mean of triplicate values of the response against relevant pools or individual peptides versus the response against the DMSO control.

[2] = test system: PBMC from allergic donors; assay: IFN-γ ELISPOT with extract-stimulated short-term lines; conditions: positive donor/peptide response
Description: as §1, §2

[3] = test system: PBMC from allergic donors; assay: IL-5 ELISPOT with extract-stimulated short-term lines; conditions: positive donor/peptide response
Description: as §1, §2

Compound | Response (SFC/10^6) Total ([1]; one donor per table line) | Response (SFC/10^6) IFNg ([2]; one donor per table line) | Response (SFC/10^6) IL-5 ([3]; one donor per table line) | Response (SFC/10^6) Total ([1]; each table line is one donor) | Response (SFC/10^6) IL-5 ([3]; each table line is one donor) | Response (SFC/10^6) IFNg ([2]; each table line is one donor)
CC[C@H](C)[C@H](N)C(=O)N[C@H](C(=O)N[C@@H](Cc1ccccc1)C(=O)N[C@@H](CO)C(=O)N[C@@H](CCC(N)=O)C(=O)N[C@@H](CC(N)=O)C(=O)N[C@@H](CCSC)C(=O)N[C@@H](CC(N)=O)C(=O)N[C@H](C(=O)N[C@@H](CCCCN)C(=O)N[C@@H](CC(C)C)C(=O)N[C@@H](CCCCN)C(=O)N[C@@H](CCSC)C(=O)N1CCC[C@H]1C(=O)N[C@@H](CC(C)C)C(=O)O)[C@@H](C)CC)[C@@H](C)CC [3324.0618] | 80 SFC/10^6 and 3067 SFC/10^6 and 73 SFC/10^6 | 80 SFC/10^6 and 73 SFC/10^6 | 3067 SFC/10^6 | – | – | –
CC[C@H](C)[C@H](NC(=O)[C@@H](N)CC(=O)O)C(=O)N[C@@H](Cc1ccc(O)cc1)C(=O)N[C@@H](CC(N)=O)C(=O)N[C@@H](Cc1ccc(O)cc1)C(=O)N[C@@H](CCSC)C(=O)N[C@@H](CCC(=O)O)C(=O)N1CCC[C@H]1C(=O)N[C@@H](Cc1ccc(O)cc1)C(=O)N[C@H](C(=O)N[C@@H](CO)C(=O)N[C@@H](CCCCN)C(=O)N[C@H](C(=O)N[C@@H](CC(=O)O)C(=O)N1CCC[C@H]1C(=O)O)C(C)C)C(C)C [3324.0663] | 73 SFC/10^6 and 302 SFC/10^6 and 107 SFC/10^6 | 73 SFC/10^6 | 302 SFC/10^6 and 107 SFC/10^6 | – | – | –
CC(C)C[C@H](NC(=O)[C@H](Cc1ccc(O)cc1)NC(=O)[C@H](C)NC(=O)[C@H](CO)NC(=O)[C@H](CCC(=O)O)NC(=O)[C@@H](NC(=O)[C@H](C)NC(=O)[C@H](C)NC(=O)[C@@H](NC(=O)CNC(=O)[C@@H](N)CO)C(C)C)[C@@H](C)O)C(=O)N[C@@H](C)C(=O)N[C@@H](Cc1ccc(O)cc1)C(=O)N[C@@H](CCCNC(=N)N)C(=O)N[C@@H](CC(N)=O)C(=O)O [3324.0829] | 687 SFC/10^6 and 403 SFC/10^6 | 340 SFC/10^6 and 237 SFC/10^6 | 347 SFC/10^6 and 167 SFC/10^6 | – | – | –
CC[C@H](C)[C@H](NC(=O)CNC(=O)[C@@H](N)CCCNC(=N)N)C(=O)N[C@@H](CCC(=O)O)C(=O)N[C@@H](Cc1ccc(O)cc1)C(=O)N[C@H](C(=O)N[C@@H](CCC(N)=O)C(=O)N[C@@H](Cc1c[nH]cn1)C(=O)N[C@@H](CC(N)=O)C(=O)NCC(=O)N[C@H](C(=O)N[C@H](C(=O)N[C@@H](CCC(N)=O)C(=O)N[C@@H](CCC(=O)O)C(=O)N[C@@H](CO)C(=O)O)C(C)C)C(C)C)[C@@H](C)CC [3324.0831] | 567 SFC/10^6 and 323 SFC/10^6 | 220 SFC/10^6 | 567 SFC/10^6 and 103 SFC/10^6 | – | – | –
CC(C)[C@H](NC(=O)CNC(=O)[C@H](CO)NC(=O)[C@H](Cc1ccccc1)NC(=O)[C@H](C)NC(=O)[C@H](Cc1c[nH]c2ccccc12)NC(=O)[C@H](CS)NC(=O)[C@@H](N)CO)C(=O)N[C@@H](C)C(=O)N[C@@H](C)C(=O)N[C@H](C(=O)N[C@@H](CCC(=O)O)C(=O)N[C@@H](CO)C(=O)N[C@@H](C)C(=O)N[C@@H](Cc1ccc(O)cc1)C(=O)O)[C@@H](C)O [3324.0832] | 1303 SFC/10^6 and 1007 SFC/10^6 | 843 SFC/10^6 and 233 SFC/10^6 | 460 SFC/10^6 and 773 SFC/10^6 | – | – | –
CC[C@H](C)[C@H](NC(=O)[C@@H](NC(=O)[C@@H](NC(=O)[C@H](C)NC(=O)[C@@H](NC(=O)[C@H](C)NC(=O)[C@H](CO)NC(=O)[C@H](Cc1c[nH]cn1)NC(=O)[C@@H](NC(=O)[C@H](CCC(N)=O)NC(=O)[C@H](C)NC(=O)[C@H](CC(C)C)NC(=O)[C@H](C)NC(=O)[C@H](CCC(=O)O)NC(=O)[C@@H](N)CCCNC(=N)N)[C@@H](C)O)[C@@H](C)CC)C(C)C)[C@@H](C)CC)C(=O)O [3324.0840] | 1883 SFC/10^6 and 900 SFC/10^6 | 1407 SFC/10^6 | 477 SFC/10^6 and 900 SFC/10^6 | – | – | –
CC[C@H](C)[C@H](NC(=O)[C@H](CCSC)NC(=O)[C@H](CCCNC(=N)N)NC(=O)[C@H](Cc1ccccc1)NC(=O)[C@H](CCCCN)NC(=O)[C@@H](NC(=O)[C@H](CCSC)NC(=O)[C@H](CC(N)=O)NC(=O)[C@H](Cc1ccc(O)cc1)NC(=O)[C@@H](NC(=O)[C@@H](N)CCC(=O)O)[C@@H](C)CC)C(C)C)C(=O)N[C@@H](C)C(=O)NCC(=O)N[C@@H](CCC(N)=O)C(=O)N[C@@H](CCC(=O)O)C(=O)O [3324.0978] | 167 SFC/10^6 and 1100 SFC/10^6 and 667 SFC/10^6 | 667 SFC/10^6 | 167 SFC/10^6 and 1100 SFC/10^6 | – | – | –
CC[C@H](C)[C@H](NC(=O)[C@H](CCC(=O)O)NC(=O)[C@H](CCCNC(=N)N)NC(=O)[C@H](Cc1c[nH]c2ccccc12)NC(=O)[C@H](CCCNC(=N)N)NC(=O)[C@H](Cc1c[nH]cn1)NC(=O)[C@@H](N)CCC(=O)O)C(=O)N[C@@H](Cc1ccc(O)cc1)C(=O)N[C@@H](CC(N)=O)C(=O)N[C@@H](CCSC)C(=O)N[C@H](C(=O)N[C@@H](CCCCN)C(=O)N[C@@H](Cc1ccccc1)C(=O)N[C@@H](CCCNC(=N)N)C(=O)N[C@@H](CCSC)C(=O)O)C(C)C [3324.0986] | 300 SFC/10^6 and 1007 SFC/10^6 and 80 SFC/10^6 and 402 SFC/10^6 | 1007 SFC/10^6 | 300 SFC/10^6 and 80 SFC/10^6 and 402 SFC/10^6 | – | – | –
CC[C@H](C)[C@H](NC(=O)[C@@H]1CCCN1C(=O)[C@H](CC(N)=O)NC(=O)[C@H](C)NC(=O)[C@H](Cc1ccc(O)cc1)NC(=O)[C@@H](N)CCCNC(=N)N)C(=O)N[C@@H](C)C(=O)N[C@@H](Cc1ccccc1)C(=O)N[C@@H](Cc1ccccc1)C(=O)N[C@@H](CCCNC(=N)N)C(=O)N[C@@H](CCCCN)C(=O)N[C@@H](CCC(=O)O)C(=O)N1CCC[C@H]1C(=O)N[C@@H](CC(C)C)C(=O)N[C@@H](CCCCN)C(=O)O [3324.1138] | 2137 SFC/10^6 | 440 SFC/10^6 | 1697 SFC/10^6 | – | – | –
CC[C@H](C)[C@H](NC(=O)[C@H](CCC(=O)O)NC(=O)[C@H](Cc1c[nH]c2ccccc12)NC(=O)[C@@H](NC(=O)CNC(=O)[C@@H](N)CC(=O)O)C(C)C)C(=O)N[C@@H](CCCCN)C(=O)N[C@@H](CO)C(=O)N[C@@H](CC(=O)O)C(=O)N[C@@H](CCCCN)C(=O)N1CCC[C@H]1C(=O)N[C@@H](CC(C)C)C(=O)N[C@@H](CCCCN)C(=O)NCC(=O)N1CCC[C@H]1C(=O)O [3324.1139] | 103 SFC/10^6 and 167 SFC/10^6 | 103 SFC/10^6 and 83 SFC/10^6 | 83 SFC/10^6 | 577 SFC/10^6 and 287 SFC/10^6 | 577 SFC/10^6 and 287 SFC/10^6 | –
CC[C@H](C)[C@H](NC(=O)[C@@H](NC(=O)[C@H](CCC(=O)O)NC(=O)[C@H](CC(=O)O)NC(=O)[C@H](Cc1ccccc1)NC(=O)[C@@H](NC(=O)[C@@H](N)CC(N)=O)C(C)C)C(C)C)C(=O)N1CCC[C@H]1C(=O)N[C@H](C(=O)N[C@@H](C)C(=O)N[C@@H](Cc1ccccc1)C(=O)N[C@H](C(=O)N[C@H](C(=O)NCC(=O)N[C@@H](CCCCN)C(=O)O)C(C)C)[C@@H](C)O)[C@@H](C)O [3324.1141] | – | – | – | 2258 SFC/10^6 and 1083 SFC/10^6 | 2258 SFC/10^6 and 820 SFC/10^6 | 263 SFC/10^6
CC[C@H](C)[C@H](NC(=O)[C@H](CC(N)=O)NC(=O)[C@H](CC(C)C)NC(=O)[C@@H](NC(=O)[C@H](CC(C)C)NC(=O)[C@@H](NC(=O)[C@H](CCCCN)NC(=O)[C@H](C)NC(=O)[C@H](CC(=O)O)NC(=O)[C@@H](N)CO)[C@@H](C)O)C(C)C)C(=O)N[C@@H](CCCCN)C(=O)N[C@@H](Cc1ccc(O)cc1)C(=O)N[C@H](C(=O)N[C@@H](CCCNC(=N)N)C(=O)N1CCC[C@H]1C(=O)O)[C@@H](C)O [3324.1142] | – | – | – | 227 SFC/10^6 and 147 SFC/10^6 and 1697 SFC/10^6 | 227 SFC/10^6 and 147 SFC/10^6 and 1547 SFC/10^6 | 150 SFC/10^6
CC[C@H](C)[C@H](NC(=O)[C@@H](NC(=O)[C@H](CCCNC(=N)N)NC(=O)[C@H](CC(C)C)NC(=O)[C@H](C)NC(=O)[C@H](CCC(=O)O)NC(=O)[C@@H](NC(=O)[C@H](CC(C)C)NC(=O)[C@@H](NC(=O)[C@H](C)NC(=O)[C@@H](NC(=O)[C@H](Cc1ccc(O)cc1)NC(=O)[C@H](C)NC(=O)[C@@H](N)CC(=O)O)C(C)C)[C@@H](C)O)[C@@H](C)O)C(C)C)C(=O)N[C@@H](C)C(=O)O [3324.1167] | – | – | – | 1427 SFC/10^6 and 1743 SFC/10^6 | 410 SFC/10^6 and 1743 SFC/10^6 | 1017 SFC/10^6
CC[C@H](C)[C@H](NC(=O)[C@H](CCCCN)NC(=O)[C@H](CCC(=O)O)NC(=O)[C@@H](NC(=O)[C@@H](N)CC(C)C)[C@@H](C)CC)C(=O)N[C@@H](CC(N)=O)C(=O)N[C@@H](C)C(=O)NCC(=O)N[C@@H](Cc1ccccc1)C(=O)N[C@@H](CCCCN)C(=O)N[C@@H](C)C(=O)N[C@@H](C)C(=O)N[C@H](C(=O)N[C@@H](C)C(=O)N[C@@H](C)C(=O)O)C(C)C [3324.1175] | – | – | – | 1860 SFC/10^6 and 1202 SFC/10^6 and 263 SFC/10^6 | 900 SFC/10^6 and 1202 SFC/10^6 and 263 SFC/10^6 | 960 SFC/10^6

From patent publication US10918713B2, “Epitopes from allergen proteins and methods and uses for immune response modulation” (LA JOLLA INSTITUTE FOR ALLERGY AND IMMUNOLOGY, priority 2012, dated 2021)
